From PMC5218480 (PLoS ONE, 2017)

Test system: MV-4-11 cells
Experiment: Gene expression microarray analysis (Affymetrix PrimeView) and GSEA
Type: cell-based, human
Design: RFU PODN (11730768_x_at) / Fold change /veh PODN (11730768_x_at) / RFU LINC00158 (11744669_a_at) / Fold change /veh LINC00158 (11744669_a_at) / RFU DUSP10 (11751237_a_at) / Fold change /veh DUSP10 (11751237_a_at) / RFU ID3 (11757404_x_at) / Fold change /veh ID3 (11757404_x_at) / RFU PLEKHG5 (11737974_s_at) / Fold change /veh PLEKHG5 (11737974_s_at) / RFU LRRC4B (11730491_at) / Fold change /veh LRRC4B (11730491_at) / RFU GIMAP4 (11747438_a_at) / Fold change /veh GIMAP4 (11747438_a_at) / RFU KRT8 (11758183_x_at) / Fold change /veh KRT8 (11758183_x_at) / RFU CNN1 (11734310_a_at) / Fold change /veh CNN1 (11734310_a_at) / RFU VPS37D (11726825_at) / Fold change /veh VPS37D (11726825_at) / RFU C10orf10 (11716522_x_at) / Fold change /veh C10orf10 (11716522_x_at) / RFU KIR2DL2 /// KIR2DL4 /// KIR2DL5A /// KIR2DL5B /// KIR2DS1 /// KIR2DS2 /// KIR2DS3 /// KIR2DS4 /// KIR3DL3 /// KIR3DL3 /// KIR3DS1 (11738374_at) / Fold change /veh KIR2DL2 /// KIR2DL4 /// KIR2DL5A /// KIR2DL5B /// KIR2DS1 /// KIR2DS2 /// KIR2DS3 /// KIR2DS4 /// KIR3DL3 /// KIR3DL3 /// KIR3DS1 (11738374_at) / RFU C1QL1 (11718748_at) / Fold change /veh C1QL1 (11718748_at) / RFU TMPRSS4 (11747572_a_at) / Fold change /veh TMPRSS4 (11747572_a_at) / RFU HAMP (11756126_x_at) / Fold change /veh HAMP (11756126_x_at) / RFU RNFT2 (11725882_a_at) / Fold change /veh RNFT2 (11725882_a_at) / RFU NR4A2 (11747474_a_at) / Fold change /veh NR4A2 (11747474_a_at) / RFU ABCC12 (11746883_a_at) / Fold change /veh ABCC12 (11746883_a_at) / RFU TMEM136 (11760407_x_at) / Fold change /veh TMEM136 (11760407_x_at) / RFU CLDN22 /// WWC2 (11732394_at) / Fold change /veh CLDN22 /// WWC2 (11732394_at) / RFU HLA-DPB1 (11760878_x_at) / Fold change /veh HLA-DPB1 (11760878_x_at) / RFU SPINT1 (11716480_a_at) / Fold change /veh SPINT1 (11716480_a_at) / RFU GAP43 (11754022_s_at) / Fold change /veh GAP43 (11754022_s_at) / RFU A4GNT (11735810_at) / Fold change /veh A4GNT (11735810_at) / RFU PRB3 (11715151_x_at) / Fold change /veh PRB3 (11715151_x_at) / RFU TUBB4B (11761932_at) / Fold change /veh TUBB4B (11761932_at) / RFU CAPN14 (11732068_a_at) / Fold change /veh CAPN14 (11732068_a_at) / RFU TMCC2 (11721928_a_at) / Fold change /veh TMCC2 (11721928_a_at) / RFU IRGQ (11745062_a_at) / Fold change /veh IRGQ (11745062_a_at) / RFU FAM174B (11720279_a_at) / Fold change /veh FAM174B (11720279_a_at) / RFU TMPRSS4 (11748680_a_at) / Fold change /veh TMPRSS4 (11748680_a_at) / RFU FAM212B (11763350_a_at) / Fold change /veh FAM212B (11763350_a_at) / RFU PLEKHG5 (11743358_a_at) / Fold change /veh PLEKHG5 (11743358_a_at) / RFU ZSCAN30 (11745921_a_at) / Fold change /veh ZSCAN30 (11745921_a_at) / RFU CMKLR1 (11741424_a_at) / Fold change /veh CMKLR1 (11741424_a_at) / RFU LOC101060620 /// MAPK8IP1 (11723275_at) / Fold change /veh LOC101060620 /// MAPK8IP1 (11723275_at) / RFU SPTSSB (11747773_x_at) / Fold change /veh SPTSSB (11747773_x_at) / RFU PRSS12 (11739890_at) / Fold change /veh PRSS12 (11739890_at) / RFU BIN1 (11741810_x_at) / Fold change /veh BIN1 (11741810_x_at) / RFU WNT11 (11732464_a_at) / Fold change /veh WNT11 (11732464_a_at) / RFU C10orf10 (11716521_a_at) / Fold change /veh C10orf10 (11716521_a_at) / RFU C5orf56 (11738089_at) / Fold change /veh C5orf56 (11738089_at) / RFU CYB561 (11721691_x_at) / Fold change /veh CYB561 (11721691_x_at) / RFU ANKRD19P (11752326_a_at) / Fold change /veh ANKRD19P (11752326_a_at) / RFU OR2T12 /// OR2T33 /// OR2T8 (11738714_s_at) / Fold change /veh OR2T12 /// OR2T33 /// OR2T8 (11738714_s_at) / RFU VCAN (11748164_a_at) / Fold change /veh VCAN (11748164_a_at) / RFU JSRP1 (11732532_at) / Fold change /veh JSRP1 (11732532_at) / RFU KRTAP10-11 (11738290_x_at) / Fold change /veh KRTAP10-11 (11738290_x_at) / RFU MYO3A (11730013_a_at) / Fold change /veh MYO3A (11730013_a_at) / RFU EBF3 (11725865_a_at) / Fold change /veh EBF3 (11725865_a_at) / RFU CAMK2N1 (11719241_x_at) / Fold change /veh CAMK2N1 (11719241_x_at) / RFU C5orf56 (11738088_a_at) / Fold change /veh C5orf56 (11738088_a_at) / RFU OLFML3 (11715873_a_at) / Fold change /veh OLFML3 (11715873_a_at) / RFU LOC100653217 /// NTM (11731650_a_at) / Fold change /veh LOC100653217 /// NTM (11731650_a_at) / RFU MAPK11 (11762145_a_at) / Fold change /veh MAPK11 (11762145_a_at) / RFU FIZ1 (11724087_x_at) / Fold change /veh FIZ1 (11724087_x_at) / RFU OASL (11726364_x_at) / Fold change /veh OASL (11726364_x_at) / RFU SOX15 (11748057_x_at) / Fold change /veh SOX15 (11748057_x_at) / RFU CD79A (11719716_a_at) / Fold change /veh CD79A (11719716_a_at) / RFU HIST1H1D (11736915_at) / Fold change /veh HIST1H1D (11736915_at) / RFU CASKIN2 (11723855_a_at) / Fold change /veh CASKIN2 (11723855_a_at) / RFU LOC730098 (11760151_x_at) / Fold change /veh LOC730098 (11760151_x_at) / RFU OR4N2 (11742367_at) / Fold change /veh OR4N2 (11742367_at) / RFU PRRT2 (11749266_a_at) / Fold change /veh PRRT2 (11749266_a_at) / RFU SNX32 (11753110_a_at) / Fold change /veh SNX32 (11753110_a_at) / RFU CDHR5 (11726645_a_at) / Fold change /veh CDHR5 (11726645_a_at) / RFU RCAN1 (11760418_a_at) / Fold change /veh RCAN1 (11760418_a_at) / RFU FAM167A (11723789_a_at) / Fold change /veh FAM167A (11723789_a_at) / RFU FAM26E (11764081_at) / Fold change /veh FAM26E (11764081_at) / RFU ISYNA1 (11749810_s_at) / Fold change /veh ISYNA1 (11749810_s_at) / RFU ACY1 (11761880_at) / Fold change /veh ACY1 (11761880_at) / RFU 11764098_at / Fold change /veh 11764098_at / RFU SAMD14 (11745864_x_at) / Fold change /veh SAMD14 (11745864_x_at) / RFU NPB (11741838_a_at) / Fold change /veh NPB (11741838_a_at) / RFU TMPRSS6 (11731388_a_at) / Fold change /veh TMPRSS6 (11731388_a_at) / RFU KRTAP10-2 (11738614_at) / Fold change /veh KRTAP10-2 (11738614_at) / RFU ARHGAP8 /// PRR5-ARHGAP8 (11727945_x_at) / Fold change /veh ARHGAP8 /// PRR5-ARHGAP8 (11727945_x_at) / RFU KRTAP5-7 /// NADSYN1 (11734609_at) / Fold change /veh KRTAP5-7 /// NADSYN1 (11734609_at) / RFU RASL12 (11751679_a_at) / Fold change /veh RASL12 (11751679_a_at) / RFU CDKN2B (11736163_a_at) / Fold change /veh CDKN2B (11736163_a_at) / RFU PRF1 (11729649_at) / Fold change /veh PRF1 (11729649_at) / RFU, ZNF638 /// ZNF638-IT1 / Fold change vs veh, ZNF638 /// ZNF638-IT1 / RFU, PANK3 / Fold change vs veh, PANK3 / RFU, SH3YL1 / Fold change vs veh, SH3YL1 / RFU, ZEB2 / Fold change vs veh, ZEB2 / RFU, NRIP1 / Fold change vs veh, NRIP1 / RFU, PTTG1IP / Fold change vs veh, PTTG1IP / RFU, CAPN2 / Fold change vs veh, CAPN2 / RFU, MED14 / Fold change vs veh, MED14 / RFU, SNORA58 / Fold change vs veh, SNORA58 / RFU, C1orf63 / Fold change vs veh, C1orf63 / RFU, LRRFIP1 / Fold change vs veh, LRRFIP1 / RFU, NDUFAF7 / Fold change vs veh, NDUFAF7 / RFU, SLC12A2 / Fold change vs veh, SLC12A2 / RFU, IBTK / Fold change vs veh, IBTK / RFU, ESF1 / Fold change vs veh, ESF1 / Fold change vs veh, TMEM50B / RFU, TAOK1 / Fold change vs veh, TAOK1 / RFU, ACBD3 / Fold change vs veh, ACBD3 / RFU, TMA16 / Fold change vs veh, TMA16 / RFU, RWDD3 / Fold change vs veh, RWDD3 / RFU, BCAT1 / Fold change vs veh, BCAT1 / RFU, EDEM3 / Fold change vs veh, EDEM3 / RFU, TMEM33 / Fold change vs veh, TMEM33 / RFU, WDR75 / Fold change vs veh, WDR75 / RFU, AHCTF1 / Fold change vs veh, AHCTF1 / RFU, TFRC / Fold change vs veh, TFRC / RFU, ZDHHC17 / Fold change vs veh, ZDHHC17 / RFU, NOM1 / Fold change vs veh, NOM1 / RFU, ARL8B / Fold change vs veh, ARL8B / RFU, ZBTB11 / Fold change vs veh, ZBTB11 / RFU, TAMM41 / Fold change vs veh, TAMM41 / RFU, KIAA1704 /// LOC100996395 / Fold change vs veh, KIAA1704 /// LOC100996395 / RFU, ING1 / Fold change vs veh, ING1 / RFU, TRMT61B / Fold change vs veh, TRMT61B / RFU, FUBP3 / Fold change vs veh, FUBP3 / RFU, TP53 / Fold change vs veh, TP53 / RFU, TNKS2 / Fold change vs veh, TNKS2 / RFU, ZFP14 / Fold change vs veh, ZFP14 / RFU, ACTR2 / Fold change vs veh, ACTR2 / RFU, PPP3R1 / Fold change vs veh, PPP3R1 / RFU, PIK3R1 / Fold change vs veh, PIK3R1 / RFU, HNRNPA1 / Fold change vs veh, HNRNPA1 / RFU, RNF170 / Fold change vs veh, RNF170 / RFU, ZNF28 / Fold change vs veh, ZNF28 / RFU, RNGTT / Fold change vs veh, RNGTT / RFU, OGT / Fold change vs veh, OGT / RFU, BRD1 / Fold change vs veh, BRD1 / RFU, MARS / Fold change vs veh, MARS / RFU, ZNF655 / Fold change vs veh, ZNF655 / RFU, FAHD1 / Fold change vs veh, FAHD1 / RFU, BDP1 / Fold change vs veh, BDP1 / RFU, LRRCC1 / Fold change vs veh, LRRCC1 / RFU, ARID1A / Fold change vs veh, ARID1A / RFU, ZNF146 / Fold change vs veh, ZNF146 / RFU, ZNF330 / Fold change vs veh, ZNF330 / RFU, GPN3 / Fold change vs veh, GPN3 / RFU, C9orf123 / Fold change vs veh, C9orf123 / RFU, N4BP2L2 / Fold change vs veh, N4BP2L2 / RFU, ARFIP1 / Fold change vs veh, ARFIP1 / RFU, FAM179B / Fold change vs veh, FAM179B / RFU, BCL10 / Fold change vs veh, BCL10 / RFU, UHRF1BP1L / Fold change vs veh, UHRF1BP1L / RFU, BET1 / Fold change vs veh, BET1 / RFU, CNOT2 / Fold change vs veh, CNOT2 / RFU, ZNF268 / Fold change vs veh, ZNF268 / Fold change vs veh, ZNF507 / RFU, DGCR2 / Fold change vs veh, DGCR2 / RFU, WDSUB1 / Fold change vs veh, WDSUB1 / Fold change vs veh, HSP90B1 /// MIR3652 / RFU, ADSS / Fold change vs veh, ADSS / RFU, GK / Fold change vs veh, GK / RFU, ZNF148 / Fold change vs veh, ZNF148 / RFU, TAF9 / Fold change vs veh, TAF9 / RFU, SLC1A5 / Fold change vs veh, SLC1A5 / RFU, SLMO2 / Fold change vs veh, SLMO2 / RFU, ABCC4 / Fold change vs veh, ABCC4 / RFU, LOC101060439 /// RAP1B / Fold change vs veh, LOC101060439 /// RAP1B / RFU, RFX7 / Fold change vs veh, RFX7 / RFU, GTPBP10 / Fold change vs veh, GTPBP10 / RFU, CNEP1R1 / Fold change vs veh, CNEP1R1 / RFU, BIVM-ERCC5 /// ERCC5 / Fold change vs veh, BIVM-ERCC5 /// ERCC5 / RFU, ILF3 / Fold change vs veh, ILF3 / RFU 11762660_at / Fold change /veh 11762660_at / RFU VCAN (11757783_s_at) / Fold change /veh VCAN (11757783_s_at) / RFU DDX43 (11728927_at) / Fold change /veh DDX43 (11728927_at) / RFU KRT8 (11758188_x_at) / Fold change /veh KRT8 (11758188_x_at) / RFU NKD1 (11759106_at) / Fold change /veh NKD1 (11759106_at) / RFU SRD5A1 (11742802_a_at) / Fold change /veh SRD5A1 (11742802_a_at) / RFU TPSAB1 /// TPSB2 (11721975_s_at) / Fold change /veh TPSAB1 /// TPSB2 (11721975_s_at) / RFU GSTM3 (11746129_a_at) / Fold change /veh GSTM3 (11746129_a_at) / RFU IL23R (11737362_x_at) / Fold change /veh IL23R (11737362_x_at) / RFU TMEM51 (11727254_a_at) / Fold change /veh TMEM51 (11727254_a_at) / RFU PIWIL2 (11732686_x_at) / Fold change /veh PIWIL2 (11732686_x_at) / RFU ORM1 (11744905_x_at) / Fold change /veh ORM1 (11744905_x_at) / RFU CCDC152 (11743942_at) / Fold change /veh CCDC152 (11743942_at) / RFU ECM1 (11717891_a_at) / Fold change /veh ECM1 (11717891_a_at) / RFU IL23R (11748794_a_at) / Fold change /veh IL23R (11748794_a_at) / RFU TNFAIP8L3 (11732012_x_at) / Fold change /veh TNFAIP8L3 (11732012_x_at) / RFU MBOAT4 (11741988_at) / Fold change /veh MBOAT4 (11741988_at) / RFU 11764193_at / Fold change /veh 11764193_at / RFU TMEM53 (11763286_at) / Fold change /veh TMEM53 (11763286_at) / RFU MAGEB2 (11727129_at) / Fold change /veh MAGEB2 (11727129_at) / RFU TMEM200A (11744735_a_at) / Fold change /veh TMEM200A (11744735_a_at) / RFU CCDC152 (11751479_a_at) / Fold change /veh CCDC152 (11751479_a_at) / RFU FAM211A (11726209_a_at) / Fold change /veh FAM211A (11726209_a_at) / RFU RGS16 (11746705_a_at) / Fold change /veh RGS16 (11746705_a_at) / RFU VCAN (11755009_s_at) / Fold change /veh VCAN (11755009_s_at) / RFU RHOB (11743442_s_at) / Fold change /veh RHOB (11743442_s_at) / RFU RGS16 (11720943_a_at) / Fold change /veh RGS16 (11720943_a_at) / RFU RGS16 (11720944_at) / Fold change /veh RGS16 (11720944_at) / RFU, VPS4B / Fold change vs veh, VPS4B / RFU, CREB1 / Fold change vs veh, CREB1 / RFU, DNAJC13 / Fold change vs veh, DNAJC13 / RFU, GNAQ / Fold change vs veh, GNAQ / RFU, CDK5R1 / Fold change vs veh, CDK5R1 / RFU, ZRANB3 / Fold change vs veh, ZRANB3 / RFU, CUL4A / Fold change vs veh, CUL4A / RFU, CCNY / Fold change vs veh, CCNY / RFU, UFL1 / Fold change vs veh, UFL1 / RFU, COG3 / Fold change vs veh, COG3 / RFU, DIAPH2 / Fold change vs veh, DIAPH2 / RFU, SKA2 / Fold change vs veh, SKA2 / RFU, AFF3 / Fold change vs veh, AFF3 / RFU, LMF1 / Fold change vs veh, LMF1 / RFU, IPO11 / Fold change vs veh, IPO11 / RFU, DFFB / Fold change vs veh, DFFB / RFU, FOXP1 / Fold change vs veh, FOXP1 / RFU, CARD8 / Fold change vs veh, CARD8 / RFU, STRN3 / Fold change vs veh, STRN3 / RFU, ADK / Fold change vs veh, ADK / RFU, RASSF2 / Fold change vs veh, RASSF2 / RFU, WIPF1 / Fold change vs veh, WIPF1 / RFU, LARP1B / Fold change vs veh, LARP1B / RFU, RASA1 / Fold change vs veh, RASA1 / RFU, RB1 / Fold change vs veh, RB1 / RFU, PPFIA1 / Fold change vs veh, PPFIA1 / RFU, MAT2A / Fold change vs veh, MAT2A / RFU, CCT5 / Fold change vs veh, CCT5 / RFU, WDR92 / Fold change vs veh, WDR92 / RFU, CUX1 / Fold change vs veh, CUX1 / RFU, TTC7A / Fold change vs veh, TTC7A / RFU, TMEM135 / Fold change vs veh, TMEM135 / RFU, DEPTOR / Fold change vs veh, DEPTOR / RFU, CPM / Fold change vs veh, CPM / RFU, DNAJB6 / Fold change vs veh, DNAJB6 / RFU, CACNA2D3 / Fold change vs veh, CACNA2D3 / RFU, DTX4 / Fold change vs veh, DTX4 / RFU, TFCP2 / Fold change vs veh, TFCP2 / RFU, GMCL1 /// GMCL1P1 / Fold change vs veh, GMCL1 /// GMCL1P1 / RFU, AEBP2 / Fold change vs veh, AEBP2 / RFU, SNHG1 /// SNORD22 /// SNORD25 /// SNORD26 /// SNORD27 /// SNORD28 /// SNORD29 /// SNORD31 / Fold change vs veh, SNHG1 /// SNORD22 /// SNORD25 /// SNORD26 /// SNORD27 /// SNORD28 /// SNORD29 /// SNORD31 / Fold change (Aza/veh), C12orf56 (ProbeSet 11735607_a_at) / Fold change (ACY-1035/veh), C12orf56 (ProbeSet 11735607_a_at) / Fold change (Aza/veh), FGFR1OP (ProbeSet 11751329_s_at) / Fold change (ACY-1035/veh), FGFR1OP (ProbeSet 11751329_s_at) / Fold change (Aza/veh), VPS36 (ProbeSet 11739960_a_at) / Fold change (ACY-1035/veh), VPS36 (ProbeSet 11739960_a_at) / RFU SYPL1 (11715823_x_at) / Fold change /veh SYPL1 (11715823_x_at) / RFU IGFBP7 (11715501_s_at) / Fold change /veh IGFBP7 (11715501_s_at) / RFU REEP3 (11722064_at) / Fold change /veh REEP3 (11722064_at) / RFU IGLL1 (11728026_x_at) / Fold change /veh IGLL1 (11728026_x_at): dose or concentration left out as unconfirmed
Conditions: ProbeSet 11746640_a_at; LIST D

Nc1ccc(-c2cccs2)cc1NC(=O)c1ccc2c(c1)cc(C1CC1)n2CCN1CCOCC1 [ACY-1035]
RFU, RASSF2: 39.78 RFU
